Patent US20210220331A1, “INHIBITORS OF IRES-MEDIATED PROTEIN SYNTHESIS” (The Regents of the University of California, priority 2016, published 2021)
Where two headings read alike, the source gives them in different places.

How the values were obtained:
human p27Kip1 IRES = assay: Dicistronic IRES mRNA reporter assay, p27Kip1 IRES; type: cell-based; conditions: LN229 cells
Experimental: Western blot and quantitative RT-PCR analyses were performed as previously described (19). For Western blotting, cells or tissues were lysed in RIPA (lysis) buffer containing protease inhibitor cocktail and phosSTOP phosphatase inhibitor cocktail (Roche) and extracts resolved by SDSPAGE. Proteins were transferred to PVDF membranes and incubated with the indicated antibodies. For IRES reporter assays, the indicated mRNA reporters were cotransfected into cells with pSVβ-galactosidase to normalize for transfection efficiency as described previously (16). Cells were harvested 18 h following transfection and Renilla, firefly and β-galactosidase activities determined using the Dual-Glo Luciferase and β-galactosidase assay systems (Promega).
(B) Schematic diagrams of the dicistronic constructs used in this study. […] Input and bound fractions were analyzed by immunoblotting using hnRNP A1 antibodies. […] Bound CCND1 or c-MYC RNAs were detected via RT-PCR. […]
Several dicistronic IRES mRNA reporter constructs were utilized, shown in FIG. 1B, in which the indicated IRES sequences were inserted within the intercistronic region. LN229 cells transiently transfected with these constructs were assayed for Renilla and firefly luciferase activities, which are readouts of cap-dependent and IRES-mediated translation initiation, respectively (16).

[1] = tested on: LN229, LN18, LN428 and SF763 GBM lines; assay: Growth inhibition of GBM cell lines (XTT); type: cell-based
Experimental: (§1) Results are expressed as relative fold change in firefly (FF) luciferase activity and the mean and +S.D. are shown for three independent experiments. (B) Growth inhibition of GBM cell lines following 48 h culture in C11. Data represent mean±S.D. of three independent experiments. […] Control cell were treated with DMSO vehicle. Data are means±S.D., n=3. […] Percent apoptotic cells as determined via Annexin V staining are also shown below each graph. One of three experiments with similar results is shown.

[2] = tested on: LN229, LN18, LN428 and SF763 GBM lines; assay: Cell-cycle phase distribution and Annexin V apoptosis in four GBM lines; type: cell-based
Experimental: as §1, with “(B) Growth inhibition of GBM cell lines following 48 h culture in C11.” left out, “graph.” for “graph. One of three experiments with similar results is shown.”

[3] = tested on: cyclin D1, c-MYC and actin mRNAs; assay: Polysome analysis in LN229 cells; type: cell-based
[4] = tested on: normal mature human neurons; assay: In vitro cytotoxicity in human neurons (trypan blue exclusion); type: cell-based; design: dose or concentration left out as unconfirmed
Experimental: Within the series B and C analogs, IRES-J008, with a 4-methoxyphenyl substituent in place of the 2,4-dimethoxybenzyl unit, and to a lesser degree, IRES-J009, with an N1-methyluracil unit in place of the dichloromaleimide unit, inhibited cyclin D1 and c-MYC PP242-induced IRES activity. […] The in vitro cytotoxicities of these three analogs relative to C11 in human neurons were also determined. […] The reduced toxicity of the IRES-J007 versus C11 might possible be due to the lack of the quite reactive dichloromaleimide unit present in C11 which is absent in IRES-J007, or may be due to other factors.

Pharmacokinetics in mice = type: in vivo
Experimental: The pharmacokinetic properties of IRES-J007 in mice were determined. […] IRES-J007 was ˜50% bioavailable following oral delivery with a serum half-life of approximately 30 hours.

[5] = tested on: subcutaneous LN229 tumors
Experimental: TUNEL staining of tumor sections was performed using the TACSXL DAB In Situ Apoptosis Detection kit (Trevigen) according to the manufacturer's instructions (19). […] Xenograft Studies-Xenografts of LN229 cells were performed in female C.B.-17-scid (Taconic) mice as previously described (14). Tumors were harvested at autopsy for Western blot analysis. Sections of paraffin-embedded tumors on slides were processed for immunohistochemistry as previously described (14,19). Statistical analysis was done with Student's t test and ANOVA models using Systat 13 (Systat Software, Chicago, Ill.). P values of less the 0.05 were considered significant.
Left panel, apoptotic cells were identified by TUNEL assays of sections prepared from harvested tumors at day 12 following initiation of treatment regimens. Data are expressed as the number of positive apoptotic bodies divided by high power field (hpf; 10-12 hpf/tumor). Values are means+S.D., *, P<0.05.

c-MYC mRNA = assay: Polysome analysis of xenografted LN229 tumors, c-MYC mRNA
Experimental: (§2) Cells were lysed in buffer containing 100 μg/ml cycloheximide at 4° C. Following removal of mitochondria and nuclei, supernatants were layered onto 15-50% sucrose gradients and centrifuged at 38,000 rpm for 2 h at 4° C. in an SW40 rotor (Beckman Instruments). Gradients were fractionated into 11 1-ml fractions using a density gradient fractionator (Brandel Instruments). The profiles of the gradients were monitored at 260 nm, and RNAs from individual fractions were pooled into a nonribosomal/monosomal pool and a polysomal pool. These RNAs (100 ng) were used in real time quantitative RT-PCR analysis for the indicated transcripts.
(§3) Tumor extracts were subjected to sucrose density gradient centrifugation, fractionated and pooled into nonribosomal, monosomal fraction (N, white bars) and a polysomal fraction (P, black bars). Purified RNAs were used in real-time qRT-PCR analysis to determine the distributions of cyclin D1, c-MYC and actin mRNAs across the gradients. […] Means and +S.D. values are shown for quadruplicate RT-PCR measurements. *, P<0.05.
(§4) Polysomes were separated via sucrose density gradient sedimentation and fractionated into heavy polysomal and nonribosomal/monosomal fractions.

actin mRNA = assay: Polysome analysis of xenografted LN229 tumors, actin mRNA; conditions: monotherapy
Experimental: as §2, §3, §4

cyclin D1 mRNA = assay: Polysome analysis of xenografted LN229 tumors, cyclin D1 mRNA
Experimental: as §2, §3, §4

[6] = combination PP242 50 mg/kg/d + IRES-J007 20 mg/kg/d

Structure (SMILES): COc1ccc(CN2C(=O)C(Cl)=C(Cl)C2=O)c(OC)c1 [Compound C11, reference compound]
- IRES-mediated initiation from p27Kip1 IRES (human p27Kip1 IRES): did not affect
- CI (combination index) at ED50 ratio of 1:100 ([1]; C11 at 10 and 100 nM with PP242, 48 h, LN229, LN18, LN428 and SF763): 0.5
- inhibition of cell growth ([1]; inhibitor alone, concentrations up to 10 μM, 48 h, several GBM lines): No significant inhibition of cell growth
- percentage of cells undergoing apoptosis ([2]; combined with PP242, four GBM lines): further potentiated the percentage of cells undergoing apoptosis
- G1 arrest ([2]; cotreatment with PP242, four GBM lines): markedly stimulated G1 arrest
- actin mRNA distribution ([3]; 50 nM): unaffected
- polysome distribution of cyclin D1 and c-MYC mRNA ([3]; 50 nM): significant shift in both cyclin D1 and c-MYC mRNA to monosomal/nonribosomal fractions
- cyclin D1 or c-MYC steady-state mRNA levels ([3]; total monosomal/nonribosomal plus polysomal mRNA): did not appear to alter

Structure (SMILES): COc1ccc(CN2C(=O)c3ccccc3C2=O)c(OC)c1 [IRES-J007, 2-((2,4-Dimethoxyphenyl)methyl)isoindoline-1,3-dione]
- cytotoxic effects on normal neurons [4]: no significant cytotoxic effects
- AUC (Pharmacokinetics in mice; mouse, plasma, 20 mg/kg, PO): 759 µg·h/mL
- Cmax (Pharmacokinetics in mice; mouse, plasma, 20 mg/kg, PO): 17.2 µg/mL
- Tmax (Pharmacokinetics in mice; mouse, plasma, 20 mg/kg, PO): 7.2 h
- half-life (Pharmacokinetics in mice; mouse, plasma, 20 mg/kg, PO, read-out: Half-life (T1/2 K10) (converted)): 1640 min
- AUC (Pharmacokinetics in mice; mouse, plasma, IV): 1290 µg·h/mL
- Cmax (Pharmacokinetics in mice; mouse, plasma, IV): 284 µg/mL
- Tmax (Pharmacokinetics in mice; mouse, plasma, IV): 0.05 h
- clearance (Pharmacokinetics in mice; mouse, plasma, IV): 152 mL/min/kg
- half-life (Pharmacokinetics in mice; mouse, plasma, IV, read-out: Half-life (T1/2 b) (converted)): 816 min
- bioavailability (Pharmacokinetics in mice; mouse, plasma, iv, read-out: Relative Bioavailability): 100%
- bioavailability (Pharmacokinetics in mice; mouse, plasma, po, 20 mg/kg, PO, calculated based on AUC, read-out: Relative Bioavailability): 40.1%
- bioavailability (Pharmacokinetics in mice; mouse, plasma, po, 20 mg/kg, oral gavage 20 mg/kg, read-out: bioavailability following oral delivery): ~50%
- half-life (Pharmacokinetics in mice; mouse, serum, oral delivery 20 mg/kg, read-out: serum half-life (converted)): ~1800 min
- trough levels (Pharmacokinetics in mice; single 20 mg/kg dose): exceeded concentrations expected to block hnRNP A1 IRES activity
- overall survival compared to either monotherapy [5, 6]: significantly extended
- tumor growth delay [5, 6]: 20.5 days
- inhibition of tumor growth at end of dosing period ([5]; combination PP242 50 mg/kg/d + IRES-J007 20 mg/kg/d, ten consecutive days): 93%
- cyclin D1 and c-MYC protein levels in tumors ([5]; combination therapy): Marked reductions
- TUNEL staining of tumor sections (apoptosis) ([5]; combination therapy, tumors harvested at day 12): significant staining
- tumor growth vs double vehicle controls ([5]; monotherapy IRES-J007 20 mg/kg/d, ten consecutive days): did not differ significantly
- c-MYC mRNA translational efficiency (c-MYC mRNA; IRES-J007 monotherapy): significant reduction
- c-MYC mRNA polysomal (c-MYC mRNA; PP242 and IRES-J007 cotherapy): 3%
- actin mRNA polysomal distribution / translational efficiency (actin mRNA): unaffected
- cyclin D1 mRNA translational efficiency (cyclin D1 mRNA; IRES-J007 monotherapy): significant reduction
- CCND1 mRNA polysomal (cyclin D1 mRNA; PP242 and IRES-J007 cotherapy): 5%
